Among the data in ChEMBL document CHEMBL1150523, “Synthesis of 1-(2-Deoxy-2-C-fluoromethyl--D-arabinofuranosyl)cytosine as a potential antineoplastic agent” (Bioorg Med Chem Lett, 1994) are IC50 values, retold here.

Converted amounts (≈) assume the structure as drawn.

Type in all cases: functional, cell-based
In one test the test system is A-375. In words: Inhibitory concentration against melanoma A-375 cell line for cytotoxicity was determined. The conditions noted are these: Homo sapiens.
The test system of another test is CCRF-HSB-2. In words: Inhibitory concentration against human T-cell line CCRF-HSB-2 for cytotoxicity was determined.
A further test concerns COLO 320DM. The test can be described thus: Inhibitory concentration against colon adenocarcinoma COLO 320DM cell line for cytotoxicity was determined. The conditions noted are these: Homo sapiens.
For test [1], the system named is KATO III stomach cancer cell line. In words: Inhibitory concentration against stomach adenocarcinoma KATO-III cell line for cytotoxicity was determined. To be noted: Homo sapiens.
For the next test, the system named is KB. In words: Inhibitory concentration against solid tumor KB cell line for cytotoxicity was determined. To be noted: Homo sapiens.
For a further test, the system named is PC-8. In words: Inhibitory concentration against lung adenocarcinoma PC-8 cell line for cytotoxicity was determined. To be noted: Homo sapiens.

In the case of `Nc1ccn([C@@H]2O[C@H](CO)C(O)C2CF)c(=O)n1` (single isomer, unassigned), the IC50 (as a rule, the concentration that inhibits the measured activity by half) in the test on A-375 was found to be 1.6 µg/mL (≈ 6.17 µM); with CCRF-HSB-2, 0.03 µg/mL (≈ 0.116 µM); in the test with COLO 320DM, 1.6 µg/mL (≈ 6.17 µM); in test [1] it was 11 µg/mL (≈ 42.4 µM); with KB, 4.47 µg/mL (≈ 17.2 µM); with PC-8, 26 µg/mL (≈ 100 µM).
